Experimental data: patent US20080145313A1, “Compositions and Methods for the Treatment and Prevention of Neoplastic Disorders” (Genesis Research & Development Corporation Limited, priority 2006, published 2008)

Test system: A549 cells
Assay: Growth inhibition of siRNA-transfected A549 cells, SYBR Green I DNA content
Assay type: cell-based, human
Conditions: 10 nM siRNA; for growth inhibition, A549: up to 120 hours post-transfection (FIG. 8)
In short: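 Growth read-out: cellular DNA quantified with SYBR Green I (485/535 nm) 96 h after transfection, cells frozen, thawed and lysed in PBS/1% Triton X-100, pH 7. Cells (A549, 5×10^3 cells/cm^2) received 10 nM siRNA by RNAiMAX; non-specific siRNA served as control; triplicate wells averaged.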

[1] = DNA content 96 hours after transfection

| Substance | Growth Inhibition in A549 cells [1] | growth inhibition, A549 | Growth Inhibition in A549 cells by 10 nM siRNA (A549 cells, DNA content 96 hours after transfection, transporter gene targets) |
| --- | --- | --- | --- |
| SEQ ID NO: 4857: siRNA targeting ACLY (chain 1 ATAGTTTGCCAGCTCGTTGACACCC; chain 2 AUAGUUUGCCAGCUCGUUGACACCC; Both strands are one antisense strand in DNA/RNA notation, chemistry not given here, further chemistry not given here; one strand in two spellings) | + (inhibits by at least 50%) |  |  |
| SEQ ID NO: 4858: siRNA targeting ACLY (chain 1 TTCTTGATCAGCTTTCTCGTGAGGG; chain 2 UUCUUGAUCAGCUUUCUCGUGAGGG; Both strands are one antisense strand in DNA/RNA notation, chemistry not given here, further chemistry not given here; one strand in two spellings) | − (no growth inhibition with any siRNA) |  |  |
| SEQ ID NO: 4859: siRNA targeting ACLY (chain 1 TACAGATGAACTTGTAAAGGAGTTC; chain 2 UACAGAUGAACUUGUAAAGGAGUUC; Both strands are one antisense strand in DNA/RNA notation, chemistry not given here, further chemistry not given here; one strand in two spellings) | − (no growth inhibition with any siRNA) |  |  |
| SEQ ID NO: 4860: siRNA targeting SLC25A5 (ANT2) (chain 1 ATGCCAGATTCCCTGCAAAGTAGCG; chain 2 AUGCCAGAUUCCCUGCAAAGUAGCG; Both strands are one antisense strand in DNA/RNA notation, chemistry not given here, further chemistry not given here; one strand in two spellings) | + (inhibits by at least 50%) |  |  |
| SEQ ID NO: 4861: siRNA targeting SLC25A5 (ANT2) (chain 1 ATTTGTAGATCTTAACCAGGCAGTC; chain 2 AUUUGUAGAUCUUAACCAGGCAGUC; Both strands are one antisense strand in DNA/RNA notation, chemistry not given here, further chemistry not given here; one strand in two spellings) | − (no growth inhibition with any siRNA) |  |  |
| SEQ ID NO: 4862: siRNA targeting SLC25A5 (ANT2) (chain 1 AGAACATTGGACCATGCACCCTTGA; chain 2 AGAACAUUGGACCAUGCACCCUUGA; Both strands are one antisense strand in DNA/RNA notation, chemistry not given here, further chemistry not given here; one strand in two spellings) | − (no growth inhibition with any siRNA) |  |  |
| SEQ ID NO: 4863: siRNA targeting SLC25A6 (ANT3) (chain 1 AAAGTACCTCCAGAACTGCGTGTGC; chain 2 AAAGUACCUCCAGAACUGCGUGUGC; Both strands are one antisense strand in DNA/RNA notation, chemistry not given here, further chemistry not given here; one strand in two spellings) | ++ (inhibits by at least 75%) |  |  |
| SEQ ID NO: 4864: siRNA targeting SLC25A6 (ANT3) (chain 1 AAATCCAGCGGGTACACGAAGCAGA; chain 2 AAAUCCAGCGGGUACACGAAGCAGA; Both strands are one antisense strand in DNA/RNA notation, chemistry not given here, further chemistry not given here; one strand in two spellings) | − (no growth inhibition with any siRNA) |  |  |
| SEQ ID NO: 4865: siRNA targeting SLC25A6 (ANT3) (chain 1 TTTGCGCCCGAACTGCATCATCATG; chain 2 UUUGCGCCCGAACUGCAUCAUCAUG; Both strands are one antisense strand in DNA/RNA notation, chemistry not given here, further chemistry not given here; one strand in two spellings) | − (no growth inhibition with any siRNA) |  |  |
| SEQ ID NO: 4866: siRNA targeting UQCRC2 (chain 1 ACACCAAGTCCAATCAAAGCCATTC; chain 2 ACACCAAGUCCAAUCAAAGCCAUUC; Both strands are one antisense strand in DNA/RNA notation, chemistry not given here, further chemistry not given here; one strand in two spellings) | − (no growth inhibition with any siRNA) |  |  |
| SEQ ID NO: 4867: siRNA targeting UQCRC2 (chain 1 AAATGCATTTGCCTCTGCACTTCCC; chain 2 AAAUGCAUUUGCCUCUGCACUUCCC; Both strands are one antisense strand in DNA/RNA notation, chemistry not given here, further chemistry not given here; one strand in two spellings) | − (no growth inhibition with any siRNA) |  |  |
| SEQ ID NO: 4868: siRNA targeting UQCRC2 (chain 1 TTGCGGTCACACTTAATTTGCCACC; chain 2 UUGCGGUCACACUUAAUUUGCCACC; Both strands are one antisense strand in DNA/RNA notation, chemistry not given here, further chemistry not given here; one strand in two spellings) | + (inhibits by at least 50%) |  |  |
| SEQ ID NO: 4872: siRNA targeting RRM2B (chain 1 TTTGACAGCATCAACAATGATCTCC; chain 2 UUUGACAGCAUCAACAAUGAUCUCC; Both strands are one antisense strand in DNA/RNA notation, chemistry not given here, further chemistry not given here; one strand in two spellings) | − (no growth inhibition with any siRNA) | No inhibition of growth |  |
| SEQ ID NO: 4873: siRNA targeting RRM2B (chain 1 TTTACTAAGTATTGGAACATCAGGC; chain 2 UUUACUAAGUAUUGGAACAUCAGGC; Both strands are one antisense strand in DNA/RNA notation, chemistry not given here, further chemistry not given here; one strand in two spellings) | − (no growth inhibition with any siRNA) | No inhibition of growth |  |
| SEQ ID NO: 4874: siRNA targeting RRM2B (chain 1 TATCTGTGGTTTCTGCCATAACTGC; chain 2 UAUCUGUGGUUUCUGCCAUAACUGC; Both strands are one antisense strand in DNA/RNA notation, chemistry not given here, further chemistry not given here; one strand in two spellings) | − (no growth inhibition with any siRNA) |  |  |
| SEQ ID NO: 4875: siRNA targeting CTPS (chain 1 AATAACACACACTTGAGGTTCCAGG; chain 2 AAUAACACACACUUGAGGUUCCAGG; Both strands are one antisense strand in DNA/RNA notation, chemistry not given here, further chemistry not given here; one strand in two spellings) | ++ (inhibits by at least 75%) |  |  |
| SEQ ID NO: 4876: siRNA targeting CTPS (chain 1 ATAAAGGGCATGCTTTCTATGTCCC; chain 2 AUAAAGGGCAUGCUUUCUAUGUCCC; Both strands are one antisense strand in DNA/RNA notation, chemistry not given here, further chemistry not given here; one strand in two spellings) | − (no growth inhibition with any siRNA) |  |  |
| SEQ ID NO: 4877: siRNA targeting CTPS (chain 1 AGCACCTGCATACAACCAGATCTGG; chain 2 AGCACCUGCAUACAACCAGAUCUGG; Both strands are one antisense strand in DNA/RNA notation, chemistry not given here, further chemistry not given here; one strand in two spellings) | + (inhibits by at least 50%) |  |  |
| SEQ ID NO: 4878: siRNA targeting IMPDH2 (chain 1 AAATTTGTGGATTGACCCTTTGTCC; chain 2 AAAUUUGUGGAUUGACCCUUUGUCC; Both strands are one antisense strand in DNA/RNA notation, chemistry not given here, further chemistry not given here; one strand in two spellings) | − (no growth inhibition with any siRNA) |  |  |
| SEQ ID NO: 4880: siRNA targeting IMPDH2 (chain 1 TCCCTGTTCATATTTCTTCACTTTC; chain 2 UCCCUGUUCAUAUUUCUUCACUUUC; Both strands are one antisense strand in DNA/RNA notation, chemistry not given here, further chemistry not given here; one strand in two spellings) | + (inhibits by at least 50%) |  |  |
| SEQ ID NO: 4940: siRNA targeting ATP2B2 (PMCA2) (chain 1 TTCTTGTGCATGCTGGCCTTCTTCC; chain 2 UUCUUGUGCAUGCUGGCCUUCUUCC; chemistry not given here; one strand in two spellings) |  |  | ++ (inhibits by at least 75%) |
